Test results as given in article PMC6804253, “Predicting and Experimentally Validating Hot-Spot Residues at Protein–Protein Interfaces” (ACS Chemical Biology, 2019).
Like-named read-outs stand apart in the source and are kept apart here.

What was measured:
[1] = test system: PPIs of the SKEMPI data set (by PDBID); settings: ref SKEMPI, cited from earlier work; for sk_ddG_kJ (SKEMPI experimental ΔΔG) / sk_ddG_kJ (SKEMPI experimental ΔΔG, mutation to alanine) / sk_ddG_kJ: single mutation to alanine; for sk_ddG_kJ (SKEMPI experimental ΔΔG, mutation to alanine): r_group DERKH; for sk_ddG_kJ: SKEMPI experimental ΔΔG of binding; for sk_ddG_kJ (SKEMPI experimental ΔΔG of binding, mutation to alanine): single mutation to alanine in the complex of the given PDBID
[2] = test system: PPIs of the SKEMPI data set (by PDBID); assay: SKEMPI experimental ΔΔG, single mutations to alanine; type: binding; settings: for sk_class: class of the SKEMPI experimental ΔΔG
[3] = complex given by PDBID, mutation by mut_pdb
[4] = PPI given by PDBID, sheet sortedByGroup
[5] = class by ΔΔG threshold 4.184 kJ/mol, ref SKEMPI
[6] = Positive / Neutral / Negative by ΔΔG threshold 4.184 kJ/mol, ref SKEMPI

Which “sk_ddG_kJ (SKEMPI experimental ΔΔG)” value [1, 3] does the source give for 1A22 SA71A here?
The value was 1.72 kJ.

And the sk_class [2]?
The sk_class was “Neutral (neutral (little effect) 4.184 kJ/mol < ΔΔG > −4.184 kJ/mol)”.

For 1A22 HA21A, which “sk_ddG_kJ (SKEMPI experimental ΔΔG, mutation to alanine)” value [1, 4] is on record?
The value was 0.84 kJ.

And the “sk_class (class of the SKEMPI experimental ΔΔG)” value [2, 5]?
Its value is “Neutral (neutral (little effect) 4.184 kJ/mol < ΔΔG > −4.184 kJ/mol)”.

Which “sk_ddG_kJ (SKEMPI experimental ΔΔG)” value [1, 3] does the source give for 1A22 NA12A here?
Its value is 0.42 kJ.

What about the sk_class [2] of the same substance?
Its sk_class is “Neutral (neutral (little effect) 4.184 kJ/mol < ΔΔG > −4.184 kJ/mol)”.

Which results are given for 1A4Y RB66A?
sk_ddG_kJ ([1]; complex by PDBID): 0.84 kJ; sk_class ([2]; ref SKEMPI): Neutral (neutral (little effect) 4.184 kJ/mol < ΔΔG > −4.184 kJ/mol)

Which results are given for 1A22 RA183A?
sk_ddG_kJ (SKEMPI experimental ΔΔG, mutation to alanine) [1, 4]: 2.09 kJ; sk_class (class of the SKEMPI experimental ΔΔG) [2, 5]: Neutral (neutral (little effect) 4.184 kJ/mol < ΔΔG > −4.184 kJ/mol)

What does the source list for 1A22 CA182A?
sk_ddG_kJ (SKEMPI experimental ΔΔG) [1, 3]: 4.23 kJ; sk_class [2]: Positive (positive (a hot residue) ΔΔG ≥ 4.184 kJ/mol)

With 1A22 LA45A as the substance, how does the “sk_ddG_kJ (SKEMPI experimental ΔΔG of binding, mutation to alanine)” value [1] read?
Its value is 5.02 kJ.

What about the “sk_class (class of the SKEMPI experimental ΔΔG)” value [2, 6] of the same substance?
The value was “Positive (positive (a hot residue) ΔΔG ≥ 4.184 kJ/mol)”.

For 1A22 LA9A, which “sk_ddG_kJ (SKEMPI experimental ΔΔG of binding, mutation to alanine)” value [1] is on record?
Its value is -0.17 kJ.

And the “sk_class (class of the SKEMPI experimental ΔΔG)” value [2, 6]?
Its value is “Neutral (neutral (little effect) 4.184 kJ/mol < ΔΔG > −4.184 kJ/mol)”.

What does the source list for 1A22 VA185A?
sk_ddG_kJ (SKEMPI experimental ΔΔG of binding, mutation to alanine) [1]: 3.64 kJ; sk_class (class of the SKEMPI experimental ΔΔG) [2, 6]: Neutral (neutral (little effect) 4.184 kJ/mol < ΔΔG > −4.184 kJ/mol)

For 1A22 RA64A, which “sk_ddG_kJ (SKEMPI experimental ΔΔG, mutation to alanine)” value [1, 4] is on record?
The value was 6.69 kJ.

What about the “sk_class (class of the SKEMPI experimental ΔΔG)” value [2, 5] of the same substance?
The value was “Positive (positive (a hot residue) ΔΔG ≥ 4.184 kJ/mol)”.

With 1A4Y WB89A as the substance, how does the “sk_ddG_kJ (SKEMPI experimental ΔΔG)” value ([1]; sheet sortedByGroup, r_group FAMILYVW) read?
Its value is 0.96 kJ.

What about the sk_class [2] of the same substance?
The sk_class was “Neutral (neutral (little effect) 4.184 kJ/mol < ΔΔG > −4.184 kJ/mol)”.

Which results are given for 1A22 FA10A?
sk_ddG_kJ (SKEMPI experimental ΔΔG of binding, mutation to alanine) [1]: 4.35 kJ; sk_class (class of the SKEMPI experimental ΔΔG) [2, 6]: Positive (positive (a hot residue) ΔΔG ≥ 4.184 kJ/mol)

Which “sk_ddG_kJ (SKEMPI experimental ΔΔG, mutation to alanine)” value ([1]; complex by PDBID, sheet sortedByGroup) does the source give for 1GC1 DC10A here?
The value was 0.00 kJ.

And the “sk_class (class of the SKEMPI experimental ΔΔG)” value ([2]; class by the 4.184 kJ/mol threshold, r_group DERKH)?
Its value is “Neutral (neutral (little effect) 4.184 kJ/mol < ΔΔG > −4.184 kJ/mol)”.

Which sk_ddG_kJ ([1]; complex by PDBID) does the source give for 1A4Y HB84A here?
The sk_ddG_kJ was 0.71 kJ.

What about the sk_class ([2]; ref SKEMPI) of the same substance?
The sk_class was “Neutral (neutral (little effect) 4.184 kJ/mol < ΔΔG > −4.184 kJ/mol)”.

For 1A4Y QB12A, which “sk_ddG_kJ (SKEMPI experimental ΔΔG)” value [1, 3] is on record?
Its value is 1.26 kJ.

What about the sk_class [2] of the same substance?
Its sk_class is “Neutral (neutral (little effect) 4.184 kJ/mol < ΔΔG > −4.184 kJ/mol)”.

Which “sk_ddG_kJ (SKEMPI experimental ΔΔG)” value [1, 3] does the source give for 1A22 QA22A here?
The value was -0.84 kJ.

And the sk_class [2]?
The sk_class was “Neutral (neutral (little effect) 4.184 kJ/mol < ΔΔG > −4.184 kJ/mol)”.

Which “sk_ddG_kJ (SKEMPI experimental ΔΔG of binding, mutation to alanine)” value [1] does the source give for 1A22 LA73A here?
The value was -0.84 kJ.

What about the “sk_class (class of the SKEMPI experimental ΔΔG)” value [2, 6] of the same substance?
Its value is “Neutral (neutral (little effect) 4.184 kJ/mol < ΔΔG > −4.184 kJ/mol)”.

Which “sk_ddG_kJ (SKEMPI experimental ΔΔG)” value ([1]; PPI given by PDBID, sheet sortedByGroup, r_group FAMILYVW) does the source give for 1GC1 VC86A here?
The value was -0.29 kJ.

What about the “sk_class (class of SKEMPI experimental ΔΔG)” value [2, 5] of the same substance?
The value was “Neutral (neutral (little effect) 4.184 kJ/mol < ΔΔG > −4.184 kJ/mol)”.

Which “sk_ddG_kJ (SKEMPI experimental ΔΔG, mutation to alanine)” value [1, 4] does the source give for 1A22 EA186A here?
Its value is 0.00 kJ.

And the “sk_class (class of the SKEMPI experimental ΔΔG)” value [2, 5]?
The value was “Neutral (neutral (little effect) 4.184 kJ/mol < ΔΔG > −4.184 kJ/mol)”.

With 1A22 IA179A as the substance, how does the “sk_ddG_kJ (SKEMPI experimental ΔΔG of binding, mutation to alanine)” value [1] read?
The value was 3.35 kJ.

And the “sk_class (class of the SKEMPI experimental ΔΔG)” value [2, 6]?
Its value is “Neutral (neutral (little effect) 4.184 kJ/mol < ΔΔG > −4.184 kJ/mol)”.

With 1A22 DA171A as the substance, how does the “sk_ddG_kJ (SKEMPI experimental ΔΔG, mutation to alanine)” value [1, 4] read?
Its value is 3.35 kJ.

And the “sk_class (class of the SKEMPI experimental ΔΔG)” value [2, 5]?
The value was “Neutral (neutral (little effect) 4.184 kJ/mol < ΔΔG > −4.184 kJ/mol)”.

With 1A22 VA180A as the substance, how does the “sk_ddG_kJ (SKEMPI experimental ΔΔG of binding, mutation to alanine)” value [1] read?
Its value is 0.00 kJ.

What about the “sk_class (class of the SKEMPI experimental ΔΔG)” value [2, 6] of the same substance?
The value was “Neutral (neutral (little effect) 4.184 kJ/mol < ΔΔG > −4.184 kJ/mol)”.

What does the source list for 1A22 YA164A?
sk_ddG_kJ (SKEMPI experimental ΔΔG of binding, mutation to alanine) [1]: 1.26 kJ; sk_class (class of the SKEMPI experimental ΔΔG) [2, 6]: Neutral (neutral (little effect) 4.184 kJ/mol < ΔΔG > −4.184 kJ/mol)

With 1A22 FA25A as the substance, how does the “sk_ddG_kJ (SKEMPI experimental ΔΔG of binding, mutation to alanine)” value [1] read?
The value was -1.72 kJ.

What about the “sk_class (class of the SKEMPI experimental ΔΔG)” value [2, 6] of the same substance?
Its value is “Neutral (neutral (little effect) 4.184 kJ/mol < ΔΔG > −4.184 kJ/mol)”.

With 1A22 QA181A as the substance, how does the “sk_ddG_kJ (SKEMPI experimental ΔΔG)” value [1, 3] read?
Its value is 1.13 kJ.

What about the sk_class [2] of the same substance?
Its sk_class is “Neutral (neutral (little effect) 4.184 kJ/mol < ΔΔG > −4.184 kJ/mol)”.

With 1A22 KA172A as the substance, how does the “sk_ddG_kJ (SKEMPI experimental ΔΔG, mutation to alanine)” value [1, 4] read?
Its value is 8.37 kJ.

What about the “sk_class (class of the SKEMPI experimental ΔΔG)” value [2, 5] of the same substance?
The value was “Positive (positive (a hot residue) ΔΔG ≥ 4.184 kJ/mol)”.

With 1A22 SA51A as the substance, how does the “sk_ddG_kJ (SKEMPI experimental ΔΔG)” value [1, 3] read?
The value was 1.26 kJ.

What about the sk_class [2] of the same substance?
Its sk_class is “Neutral (neutral (little effect) 4.184 kJ/mol < ΔΔG > −4.184 kJ/mol)”.

Which “sk_ddG_kJ (SKEMPI experimental ΔΔG of binding, mutation to alanine)” value [1] does the source give for 1A22 YA42A here?
Its value is 0.84 kJ.

What about the “sk_class (class of the SKEMPI experimental ΔΔG)” value [2, 6] of the same substance?
Its value is “Neutral (neutral (little effect) 4.184 kJ/mol < ΔΔG > −4.184 kJ/mol)”.

Which results are given for 1A22 TA175A?
sk_ddG_kJ (SKEMPI experimental ΔΔG) [1, 3]: 8.37 kJ; sk_class [2]: Positive (positive (a hot residue) ΔΔG ≥ 4.184 kJ/mol)

For 1A4Y RB33A, which sk_ddG_kJ ([1]; complex by PDBID) is on record?
The sk_ddG_kJ was 1.38 kJ.

And the sk_class ([2]; ref SKEMPI)?
The sk_class was “Neutral (neutral (little effect) 4.184 kJ/mol < ΔΔG > −4.184 kJ/mol)”.
